Measured values published in BindingDB's records for doi:10.1021/jm400944k (China Pharmaceutical University, 2013).

Target: T1, Nuclear factor erythroid 2-related factor 2 (Homo sapiens, UniProt Q16236)
T1 sequence (Q16236 whole entry): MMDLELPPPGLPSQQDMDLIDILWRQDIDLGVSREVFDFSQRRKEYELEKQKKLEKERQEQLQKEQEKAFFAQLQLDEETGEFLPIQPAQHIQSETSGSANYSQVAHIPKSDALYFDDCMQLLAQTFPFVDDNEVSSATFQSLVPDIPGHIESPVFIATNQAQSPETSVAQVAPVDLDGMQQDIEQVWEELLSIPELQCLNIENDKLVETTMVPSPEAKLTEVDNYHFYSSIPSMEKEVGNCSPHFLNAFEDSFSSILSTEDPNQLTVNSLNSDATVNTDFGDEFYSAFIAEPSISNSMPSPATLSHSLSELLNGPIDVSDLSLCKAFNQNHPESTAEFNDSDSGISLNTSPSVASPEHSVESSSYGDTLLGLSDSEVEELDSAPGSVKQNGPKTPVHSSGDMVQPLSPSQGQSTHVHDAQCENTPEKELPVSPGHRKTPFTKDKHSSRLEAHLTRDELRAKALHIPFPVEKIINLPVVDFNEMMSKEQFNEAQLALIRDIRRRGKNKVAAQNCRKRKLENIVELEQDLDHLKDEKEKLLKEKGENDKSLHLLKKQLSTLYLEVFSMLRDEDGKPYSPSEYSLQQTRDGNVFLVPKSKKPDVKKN
Test: Induction of Nrf2-mediated ARE activity in human HepG2-ARE-C8 cells after 12 hrs by luciferase reporter gene assay

Compound | EC50 [µM]
COc1cccc(C(=O)/C=C2\NCC3c4ccccc4CCN3C2=O)c1 (configuration not stated) | > 100
O=C(/C=C1\NCC2c3ccccc3CCN2C1=O)c1ccc([N+](=O)[O-])cc1 (configuration not stated) | > 100
O=C(/C=C1\NCC2c3ccccc3CCN2C1=O)c1ccc(Cl)cc1 (configuration not stated) | > 100
O=C(/C=C1\NCC2c3ccccc3CCN2C1=O)c1ccccc1Cl (configuration not stated) | > 100
COc1ccc2c(c1)CCN1C(=O)/C(=C/C(=O)c3cccc(F)c3)NCC21 (configuration not stated) | > 100
COc1ccc2c(c1)CCN1C(=O)/C(=C/C(=O)c3ccccc3)NCC21 (configuration not stated) | > 100
COc1cccc2c1CCN1C(=O)/C(=C/C(=O)c3ccccc3F)NCC21 (configuration not stated) | > 100
COc1cc2c(cc1OC)C1CN/C(=C\C(=O)c3ccccc3)C(=O)N1CC2 (configuration not stated) | > 100
COc1ccc2c(c1)C1CN/C(=C\C(=O)c3cccc(Cl)c3)C(=O)N1CC2 (configuration not stated) | > 100
Cc1ccc(C(=O)/C=C2\NCC3c4ccccc4CCN3C2=O)cc1 (configuration not stated) | > 100
O=C(/C=C1\NCC2c3ccccc3CCN2C1=O)c1ccc(F)cc1 (configuration not stated) | > 100
COc1ccc2c(c1)C1CN/C(=C\C(=O)c3cccc([N+](=O)[O-])c3)C(=O)N1CC2 (configuration not stated) | > 100
O=C(/C=C1\NCC2c3ccccc3CCN2C1=O)c1ccc(Cl)cc1Cl (configuration not stated) | > 100
COc1ccc2c(c1)CCN1C(=O)/C(=C/C(=O)c3ccccc3F)NCC21 (configuration not stated) | > 100
COc1ccc2c(c1)C1CN/C(=C\C(=O)c3ccccc3F)C(=O)N1CC2 (configuration not stated) | > 100
O=C(/C=C1\NCC2c3ccccc3CCN2C1=O)c1cccc(F)c1 (configuration not stated) | > 100
O=C(/C=C1\NCC2c3ccccc3CCN2C1=O)c1cccc([N+](=O)[O-])c1 (configuration not stated) | > 100
O=C(/C=C1\NCC2c3ccccc3CCN2C1=O)c1cccc(Cl)c1 (configuration not stated) | > 100
O=C(/C=C1\NCC2c3ccccc3CCN2C1=O)c1cccc(C(F)(F)F)c1 (configuration not stated) | > 100
COc1cccc2c1CCN1C(=O)/C(=C/C(=O)c3cccc(F)c3)NCC21 (configuration not stated) | > 100
COc1cccc(C(=O)/C=C2\NCC3c4cc(OC)c(OC)cc4CCN3C2=O)c1 (configuration not stated) | > 100
COc1ccc(C(=O)/C=C2\NCC3c4ccccc4CCN3C2=O)cc1 (configuration not stated) | > 100
O=C(/C=C1\NCC2c3ccccc3CCN2C1=O)c1ccccc1F (configuration not stated) | > 100
O=C(/C=C1\NCC2c3ccccc3CCN2C1=O)c1ccccc1 (configuration not stated) | > 100

Results, then the molecule that gave them:

EC50 [µM] | Compound
> 100 | COc1ccc2c(c1)C1CN/C(=C\C(=O)c3ccccc3)C(=O)N1CC2 (configuration not stated)
> 100 | COc1cc2c(cc1OC)C1CN/C(=C\C(=O)c3cccc(Cl)c3)C(=O)N1CC2 (configuration not stated)
> 100 | COc1ccc2c(c1)C1CN/C(=C\C(=O)c3cccc(F)c3)C(=O)N1CC2 (configuration not stated)
> 100 | COc1cccc(C(=O)/C=C2\NCC3c4cc(OC)ccc4CCN3C2=O)c1 (configuration not stated)
> 100 | COc1ccccc1C(=O)/C=C1\NCC2c3ccccc3CCN2C1=O (configuration not stated)
> 100 | O=C(/C=C1\NCC2c3ccccc3CCN2C1=O)c1ccccc1[N+](=O)[O-] (configuration not stated)
93 | COc1ccc(C(=O)/C=C2\NCC3c4ccccc4CCN3C2=O)cc1OC (configuration not stated)
> 100 | O=C(/C=C1\NCC2c3ccccc3CCN2C1=O)c1ccc(-c2ccccc2)cc1 (configuration not stated)
> 100 | O=C(/C=C1\NCC2c3ccccc3CCN2C1=O)c1ccc(F)c(F)c1 (configuration not stated)
81.5 | COc1cc2c(cc1OC)C1CN/C(=C\C(=O)c3ccc(F)cc3)C(=O)N1CC2 (configuration not stated)
92 | COc1cc2c(cc1OC)C1CN/C(=C\C(=O)c3cccc(F)c3)C(=O)N1CC2 (configuration not stated)
49.6 | COc1cc2c(cc1OC)C1CN/C(=C\C(=O)c3cccc([N+](=O)[O-])c3)C(=O)N1CC2 (configuration not stated)
75.9 | COc1cc2c(cc1OC)C1CN/C(=C\C(=O)c3ccccc3F)C(=O)N1CC2 (configuration not stated)
58.9 | O=C(/C=C1\NCC2c3ccccc3CCN2C1=O)c1cc(F)cc(F)c1 (configuration not stated)
59.1 | O=C(/C=C1\NCC2c3ccccc3CCN2C1=O)c1cccc(Br)c1 (configuration not stated)
58.5 | COc1cccc2c1CCN1C(=O)/C(=C/C(=O)c3ccccc3)NCC21 (configuration not stated)
88 | COc1ccc2c(c1)C1CN/C(=C\C(=O)c3ccc(F)cc3)C(=O)N1CC2 (configuration not stated)
91.5 | CC(C)(C)c1cc(O)ccc1O [CHEBI:78886]
